The values below come from patent US12227520B2 (priority 2019, dated 2025).

What is called CC50 is the concentration at which the toxic effect on the cells reaches its halfway point.

pEC50: −log10 of the molar value. Where two headings read alike, the source gives them in different places.

Series [1] is described as follows: Cytotoxicity assay in MT-4 cells. It counts as cell-based, human. The settings on record: human, uninfected MT-4 cells, 5 days incubation; read-out: CC50. The procedure, abridged:
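For cytotoxicity, uninfected MT-4 cells were incubated with compounds 5 days at 37 °C, with 10 μM puromycin marking base cytotoxicity. Parallel plates used HIV-1 IIIB-infected (1:250 stock dilution) or mock cells with 5 μM AZT and no-drug controls. Read-out: CellTiter-Glo chemiluminescence.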

In series [2] the test system is pLai RLuc reporter virus. The experiment in a line: microbe, parasite or virus in culture. It counts as cell-based, HIV. The settings on record: Human immunodeficiency virus 1, 72 h. The procedure, abridged:
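Read-out is Renilla luciferase after 72 h at 37 °C in MT-4 cells infected 2 h beforehand with pLai RLuc reporter virus; compounds diluted 1:3.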

In series [3] the test system is HIV-1 (IIIB). Put plainly: Antiviral assay in MT-4 cells (HIV MT-4 antiviral assay). Type of series: cell-based. To be noted: Human immunodeficiency virus 1, IIIB, MT4, 120 h, HIV-1 (IIIB) in MT-4 cells, 5 days incubation; read-out: EC50. The procedure, abridged: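 Read-out is CellTiter-Glo chemiluminescence after 5-day culture at 37° C, giving protection of MT-4 cells from HIV-1 IIIB cytopathicity. Compounds tested in 1:3 dilution series in complete RPMI; controls were no drug, mock infection and 5 μM AZT.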

Where [4] appears, read: read-out: Antiviral Serum Shift RLuc 50% HS, HS/CCM (RPMI media, 10% FBS, 50% HS, 1% P/S), 72-h incubation.
[5] abbreviates: read-out: Antiviral Serum Shift RLuc CCM, CCM (RPMI media, 10% FBS, 1% P/S), 72-h incubation.

Regarding `O=C(NCc1ccc(F)cc1F)c1cn2c(c(O)c1=O)C(=O)N1CCCC3(CC3)[C@H]2C1` [Example 57-1, (7'S)—N-(2,4-difluorobenzyl)-12′-hydroxy-1′,11′-dioxo-1′,4′,5′,11′-tetrahydro-3′H,7′H-spiro[cyclopropane-1,6′-[2,7]methanopyrido[1,2-a][1,4]diazonine]-10′-carboxamide], the CC50 at 5 days in series [1] was 6900 nM. For the same compound, the pEC50 is 8.63 in series [2] (setting [4]), 9.64 in series [2] (setting [5]) and 8.91 in series [3].

`O=C(NCc1ccc(F)cc1F)c1cn2c(c(O)c1=O)C(=O)N1CCCC3(CC3)[C@@H]2C1` [Example 57-2, (7′R)—N-(2,4-difluorobenzyl)-12′-hydroxy-1′,11′-dioxo-1′,4′,5′,11′-tetrahydro-3′H,7′H-spiro[cyclopropane-1,6′-[2,7]methanopyrido[1,2-a][1,4]diazonine]-10′-carboxamide]: the CC50 at 5 days in series [1] was 8910 nM. In addition, the pEC50 in series [2] (setting [4]) was 6.88; in series [2] (setting [5]) it was 9.40; in series [3], 8.75.

Consider `O=C(NCc1ccc(F)c(Cl)c1F)c1cn2c(c(O)c1=O)C(=O)N1CC=CC[C@H]2C1` [Example 58, (7S)—N-(3-chloro-2,4-difluorobenzyl)-12-hydroxy-1,11-dioxo-1,6,7,11-tetrahydro-3H-2,7-methanopyrido[1,2-a][1,4]diazonine-10-carboxamide], for which, in series [1], the CC50 at 5 days was found to be 4150 nM. The pEC50 in series [2] (setting [4]) is 8.78; in series [2] (setting [5]) it was 9.60; in series [3] it was 9.01.

On to `C[C@]12CCCCN(C1)C(=O)c1c(O)c(=O)c(C(=O)NCc3c(F)cc(F)cc3F)cn12` [Example 59-1, (7S)-12-hydroxy-7-methyl-1,11-dioxo-N-(2,4,6-trifluorobenzyl)-1,4,5,6,7,11-hexahydro-3H-2,7-methanopyrido[1,2-a][1,4]diazonine-10-carboxamide], for which the CC50 at 5 days in series [1] came to 15000 nM. In addition, the pEC50 was 7.58 in series [2] (setting [4]), 9.44 in series [2] (setting [5]) and 8.82 in series [3].

Regarding `C[C@@]12CCCCN(C1)C(=O)c1c(O)c(=O)c(C(=O)NCc3c(F)cc(F)cc3F)cn12` [Example 59-2, (7R)-12-hydroxy-7-methyl-1,11-dioxo-N-(2,4,6-trifluorobenzyl)-1,4,5,6,7,11-hexahydro-3H-2,7-methanopyrido[1,2-a][1,4]diazonine-10-carboxamide], the CC50 at 5 days in series [1] was determined as 18800 nM. Moreover, the pEC50 in series [2] (setting [4]) was 7.26; in series [2] (setting [5]), 9.26; in series [3], 8.67.

In the case of `C[C@]1(F)CCCN2C[C@H]1n1cc(C(=O)NCc3ccc(F)cc3F)c(=O)c(O)c1C2=O` [Example 60-1, (6S,7R)—N-(2,4-difluorobenzyl)-6-fluoro-12-hydroxy-6-methyl-1,11-dioxo-1,4,5,6,7,11-hexahydro-3H-2,7-methanopyrido[1,2-a][1,4]diazonine-10-carboxamide], in series [1], the CC50 at 5 days stood at 13900 nM. In addition, the pEC50 is 8.80 in series [2] (setting [4]), 9.34 in series [2] (setting [5]) and 8.75 in series [3].

Turning to `C[C@@]1(F)CCCN2C[C@@H]1n1cc(C(=O)NCc3ccc(F)cc3F)c(=O)c(O)c1C2=O` [Example 60-3, (6R, 7S)—N-(2,4-difluorobenzyl)-6-fluoro-12-hydroxy-6-methyl-1,11-dioxo-1,4,5,6,7,11-hexahydro-3H-2,7-methanopyrido[1,2-a][1,4]diazonine-10-carboxamide], in series [1], the CC50 at 5 days came to 14800 nM. For the same compound, the pEC50 was 7.83 in series [2] (setting [4]), 9.42 in series [2] (setting [5]) and 8.65 in series [3].

With `C[C@]1(F)CCCN2C[C@@H]1n1cc(C(=O)NCc3c(F)cc(F)cc3F)c(=O)c(O)c1C2=O` [Example 61-1, (6S, 7S)-6-fluoro-12-hydroxy-6-methyl-1,11-dioxo-N-(2,4,6-trifluorobenzyl)-1,4,5,6,7,11-hexahydro-3H-2,7-methanopyrido[1,2-a][1,4]diazonine-10-carboxamide], in series [1], the CC50 at 5 days came to 10300 nM. In addition, the values for the pEC50 in series [2] (setting [4]), in series [2] (setting [5]) and in series [3] were 7.14, 9.69 and 8.73, respectively.

In the case of `C[C@@]1(F)CCCN2C[C@@H]1n1cc(C(=O)NCc3c(F)cc(F)cc3F)c(=O)c(O)c1C2=O` [Example 61-2, (6R, 7S)-6-fluoro-12-hydroxy-6-methyl-1,11-dioxo-N-(2,4,6-trifluorobenzyl)-1,4,5,6,7,11-hexahydro-3H-2,7-methanopyrido[1,2-a][1,4]diazonine-10-carboxamide], the CC50 at 5 days in series [1] came to 16900 nM. The pEC50 was 7.86 in series [2] (setting [4]), 9.85 in series [2] (setting [5]) and 8.60 in series [3].

In the case of `O=C(NCc1ccc(F)c(Cl)c1Cl)c1cn2c(c(O)c1=O)C(=O)N1CCCC[C@H]2C1` [Example 62, (7S)—N-(2,3-dichloro-4-fluorobenzyl)-12-hydroxy-1,11-dioxo-1,4,5,6,7,11-hexahydro-3H-2,7-methanopyrido[1,2-a][1,4]diazonine-10-carboxamide], in series [1], the CC50 at 5 days amounted to 3460 nM. Further, the pEC50 in series [2] (setting [4]) is 8.38; in series [2] (setting [5]), 9.53; in series [3] it was 8.90.

Regarding `O=C(NCc1ccc(F)cc1F)c1cn2c(c(O)c1=O)C(=O)N1CCC[C@@H]3C[C@]32C1` [Example 65-1, (1aR,11aR)—N-(2,4-difluorobenzyl)-7-hydroxy-6,8-dioxo-1a,2,3,4,6,8-hexahydro-1H-5,11a-methanocyclopropa[h]pyrido[1,2-a][1,4]diazonine-9-carboxamide], the CC50 at 5 days in series [1] amounted to 8800 nM. Besides, the pEC50 in series [2] (setting [4]) was 7.54; in series [2] (setting [5]) it was 9.53; in series [3] it was 8.76.

As to `O=C(NCc1ccc(F)cc1F)c1cn2c(c(O)c1=O)C(=O)N1CCC[C@H]3C[C@@]32C1` [Example 65-2, (1aS,11aS)—N-(2,4-difluorobenzyl)-7-hydroxy-6,8-dioxo-1a,2,3,4,6,8-hexahydro-1H-5,11a-methanocyclopropa[h]pyrido[1,2-a][1,4]diazonine-9-carboxamide], in series [1], the CC50 at 5 days was determined as 8820 nM. For the same compound, the pEC50 in series [2] (setting [4]) is 8.46; in series [2] (setting [5]), 9.47; in series [3] it was 8.78.

Regarding `O=C(NCc1c(F)cc(F)cc1F)c1cn2c(c(O)c1=O)C(=O)N1CCC[C@@H]3C[C@]32C1` [Example 66-1, (1aR,11aR)—N-(2,4,6-trifluorobenzyl)-7-hydroxy-6,8-dioxo-1a,2,3,4,6,8-hexahydro-1H-5,11a-methanocyclopropa[h]pyrido[1,2-a][1,4]diazonine-9-carboxamide], in series [1], the CC50 at 5 days came to 11100 nM. Further, the pEC50 in series [2] (setting [4]) was 7.69; in series [2] (setting [5]), 9.65; in series [3], 8.75.

As for `O=C(NCc1c(F)cc(F)cc1F)c1cn2c(c(O)c1=O)C(=O)N1CCC[C@H]3C[C@@]32C1` [Example 66-2, (1aS,11aS)—N-(2,4,6-trifluorobenzyl)-7-hydroxy-6,8-dioxo-1a,2,3,4,6,8-hexahydro-1H-5,11a-methanocyclopropa[h]pyrido[1,2-a][1,4]diazonine-9-carboxamide], the CC50 at 5 days in series [1] is 10400 nM. Further, the pEC50 in series [2] (setting [4]) was 8.34; in series [2] (setting [5]) it was 9.53; in series [3] it was 8.78.

Consider `O=C(NCc1ccc(F)c(Cl)c1F)c1cn2c(c(O)c1=O)C(=O)N1CC2CCc2cccc(F)c21` (stereo not drawn) [Example 67, N-(3-chloro-2,4-difluorobenzyl)-4-fluoro-7-hydroxy-6,8-dioxo-6,8,13,14-tetrahydro-12H-5,12-methanobenzo[e]pyrido[1,2-a][1,4]diazonine-9-carboxamide], for which the CC50 at 5 days in series [1] stood at 23900 nM. Further, the pEC50 in series [2] (setting [4]) was 8.83; in series [2] (setting [5]), 9.36; in series [3], 8.61.

For `O=C(NCc1ccc(F)c(Cl)c1F)c1cn2c(c(O)c1=O)C(=O)N1CC2CCc2cc(F)ccc21` (stereo not drawn) [Example 68, N-(3-chloro-2,4-difluorobenzyl)-2-fluoro-7-hydroxy-6,8-dioxo-6,8,13,14-tetrahydro-12H-5,12-methanobenzo[e]pyrido[1,2-a][1,4]diazonine-9-carboxamide], in series [1], the CC50 at 5 days stood at 3580 nM. In addition, the pEC50 in series [2] (setting [4]) was 8.93; in series [2] (setting [5]), 9.56; in series [3] it was 8.92.

In the case of `O=C(NCc1ccc(F)c(Cl)c1F)c1cn2c(c(O)c1=O)C(=O)N1CC2CCc2cc(F)c(F)cc21` (stereo not drawn) [Example 69, N-(3-chloro-2,4-difluorobenzyl)-2,3-difluoro-7-hydroxy-6,8-dioxo-6,8,13,14-tetrahydro-12H-5,12-methanobenzo[e]pyrido[1,2-a][1,4]diazonine-9-carboxamide], the CC50 at 5 days in series [1] worked out at 36700 nM. Also, the pEC50 in series [2] (setting [4]) was 8.98; in series [2] (setting [5]), 9.70; in series [3], 8.71.

Regarding `O=C(NCc1c(F)cc(F)cc1F)c1cn2c(c(O)c1=O)C(=O)N1Cc3ccccc3C[C@H]2C1` [Example 70, (6S)-1-hydroxy-2,14-dioxo-N-(2,4,6-trifluorobenzyl)-2,7,12,14-tetrahydro-6H-6,13-methanobenzo[f]pyrido[1,2-a][1,4]diazonine-3-carboxamide], in series [1], the CC50 at 5 days came out at 13300 nM. The pEC50 in series [2] (setting [4]) is 8.88; in series [2] (setting [5]), 9.49; in series [3] it was 8.85.
